Measured values taken from patent publication US8563503B2, “Antibiotic, its nucleotide sequence, methods of construction and uses thereof” (Protein Design Lab. Ltd., priority 2011, dated 2013).
In brackets after ≈: the same amount, converted by molar mass. Entries after “also recorded” stand apart in the source; their conditions may differ.

Tests used:
Baumanii = assay: MIC by Agar Doubling Dilution Method, clinical isolates; assay type: cell-based
Experimental: (§1) (3) Culture Solution • MH Broth Culture Solution: 25 g was added into […] distilled water, heat to dissolve, subpackaged, autoclaved at 116° C. for 20 minutes, and MH Solid Culture Medium, 36 g was added into 1000 ml distilled water, autoclaved at 116° C. for 20 minutes, used for drug sensitive test of Gram-positive and negative aerobic bacteria. • Blood culture solution for Enterococcus faecalis, which was prepared by adding defibration rabbit blood into the MH culture solution by 5-10% and cultured at 37° C. in 5% CO2 for 24 hours. 2. Experimental Methods (1) The Measurement of Minimum Inhibitory Concentration (MIC) • The Minimum Inhibitory Concentration (MIC) of PMC-SA1 was measured by Agar Doubling Dilution Method. The bacterium was inoculated on the surface of agar plate containing different concentration of drugs by multipoint inoculate instrument (Deneley A400). The bacterial content per point was 10^5 CFU/ml. After incubated at 37° C. for 18-24 hours, the result can be observed. The least concentration of drugs in plate culture solution without bacterium growing was Minimum Inhibitory Concentration (MIC) of the drug to the said bacteria. 3. Results

E. coli = assay: as above; assay type: cell-based; details: Escherichia coli
Experimental: as §1

[1] = system: Staphylococcus aureus (MRSA); assay: as above; assay type: cell-based; details: Staphylococcus aureus, MRSA
Experimental: as §1

[2] = system: Staphylococcus aureus (MSSA); assay: as above; assay type: cell-based; details: Staphylococcus aureus, MSSA
Experimental: as §1

[3] = system: Staphylococcus epidermidis (MRSE); assay: as above; assay type: cell-based; details: Staphylococcus epidermidis, MRSE
Experimental: as §1

[4] = system: Staphylococcus epidermidis (MSSE strain); assay: as above; assay type: cell-based; details: Staphylococcus epidermidis
Experimental: as §1

Enterococcus = assay: as above; assay type: cell-based, Enterococcus faecalis; details: Enterococcus
Experimental: as §1

Enterococcus ATCC 700802 [5] = assay: MIC against the infecting strain (Table 2); assay type: cell-based, Enterococcus faecalis; details: ATCC700802
Experimental: as §1

E. coli 02-1-65 [6] = assay: MIC against the infecting strain (Table 2); assay type: cell-based; details: Escherichia coli, 02165
Experimental: as §1

[7] = system: Staphylococcus aureus ATCC 29213; assay: MIC against the infecting strain (Table 2); assay type: cell-based; details: ATCC29213
Experimental: as §1

[8] = system: Staphylococcus aureus MRSA BAA-42; assay: MIC against the infecting strain (Table 2); assay type: cell-based; details: Staphylococcus aureus
Experimental: as §1

E. coli 02-1-65 [9] = assay: Protection test in vivo (intravenous injection) of infected mice; design: species or system Kungming mice; details: Escherichia coli, 02165
Experimental: (§2) The drugs used in this embodiment were same with that used in embodiment 4.
(§3) The above drugs were dissolved and diluted by sterilized water, and the injection concentrations of each drug were 10 mg/kg, 5 mg/kg and 2.5 mg/kg.
(§4) After given intraperitoneal injection of fatal dose of above-mentioned bacteria, the mice of each drug experimental group respectively were given once intravenous injection of the drug by 10 mg, 5 mg, 2.5 mg/kg. The results were observed per 24 hours for 7-14 days. The positive result is mice's death.

Enterococcus ATCC 700802 [10] = assay: as above; design: species or system Kungming mice; details: Enterococcus, ATCC700802
Experimental: as §2, §3, §4

[11] = system: Staphylococcus aureus ATCC 29213; assay: as above; design: species or system Kungming mice; details: Staphylococcus aureus, ATCC29213
Experimental: as §2, §3, §4

[12] = system: Staphylococcus aureus MRSA BAA-42; assay: as above; design: species or system Kungming mice; details: Staphylococcus aureus
Experimental: as §2, §3, §4

[13] = Immunization of mice, valence of mouse sera by indirect ELISA; assay type: in vivo; details: from valence of mouse sera
Experimental: Allosteric peptide of Colicin Ia, i.e. Ia′, PMC-SA1 obtained in embodiment 1, wild-type colicin Ia and the anti-Staphylococcus aureus peptide (ZL01128836.1) which invented by the present inventor were taken respectively to immunize mice. After admixturing with the adjuvant, the above proteins were interaperitonea injected respectively to the mice by 50 μg per mouse for one time of foundational quantity and 50 μg per mouse for one time of additional quantity totally 5 times by two weeks interval. Indirect ELISA detection method was applied to detect the valence of mouse sera (Xiao Yi, et. al., Preparation and preliminary characterization of monoclonal antibodies against Pheromonicin-and-Staphylococcus aureus, Shanxi Medical Journal, 35(1): 6-7, 32 (2006)). The valence of mouse sera which immunized by wild type colicin Ia as well as anti-Staphylococcus aureus polypeptide (ZL01128836.1) was 10^−4 to 10^−5, while the valence of mouse sera which immunized by allosteric peptide of colicin Ia and PMC-SA1 was 10^−2 to 10^−3.

[14] = system: Staphylococcus epidermidis reference culture No. 26069; assay: Bacteria growth curve (A595 nm cloudiness), Staphylococcus epidermidis; assay type: cell-based; details: drug 2 μg/ml, 37° C., A595 nm per hour
Experimental: The bacterium is Staphylococcus epidermidis reference culture No. 26069, purchased from China Center of Culture Collection (National Institute for the Control of Pharmaceutical and Biological Products). 3 microliter of bacterium solution (10^6 CFU/ml level bacterium amount) was added into 10 ml culture solution containing 1% peptone, 1% NaCl, 0.5% yeast extract, 0.5% glucose and 0.1% K2HPO4. Totally four groups were prepared. The first group as control was added 0.3M NaCl+50 mM boric acid buffer fluid by the same volume with that of antibiosis polypeptide liquid added in any experimental groups, the second group was added penicillin G sodium by 2 μg/ml, PMC-SA1 and PMC-SE was added in the other experimental groups by 2 μg/ml (0.3 M NaCl+50 mM boric acid buffer fluid was preservative fluid).
(§5) The solution of above groups was put into 100 ml conical flask, 200 rpm, grew at 37° C. 100 μl was sampled per hour, and added onto 96-pore ELISA plate to measure bacteria grown cloudiness by spectrophotometer (A595 nm) color comparison. The bacteria growth curve was drawn up to compare the bacteriostasis efficacy of the novel antibiotics.

[15] = system: methicillin-resistant Staphylococcus aureus ATCC BAA-42; assay: Bacteria growth curve (A595 nm), comparison of the novel antibiotics; assay type: cell-based; details: drug 5 μg/ml, 37° C., A595 nm per hour
Experimental: The following experiment was set for comparing bacteriostasis effects of 6 kinds of the novel antibiotics. The experimental bacteriaum was United States Standard Strain methicillin-resistant Staphylococcus aureus ATCC BAA-42. 5 microliter of bacteria solution (10^6 CFU/ml level bacterium amount) was added into 10 ml culture solution containing 1% peptone, 1% NaCl, 0.5% yeast extract, 0.5% glucose and 0.1% K2HPO4, total of 8 groups were prepared. The first group as control was added 0.3 M NaCl+50 mM boric acid buffer fluid by the same volume as that of antibiosis polypeptide liquid added in any experimental groups, the second group was added penicillin G sodium by 5 μg/ml, PMC-SA1, PMC-SA2, PMC-SA3, PMC-SA4, PMC-SE and PMC-PA were added in the other experimental groups with preservative fluid being 0.3 M NaCl+50 mM boric acid buffer fluid by 5 ug/ml.
as §5, with “and measured” for “to measure”, “antibiosis polypeptide.” for “the novel antibiotics.”

CN[C@H](CC(C)C)C(=O)N[C@H]1C(=O)N[C@@H](CC(N)=O)C(=O)N[C@H]2C(=O)N[C@H]3C(=O)N[C@H](C(=O)N[C@H](C(=O)O)c4cc(O)cc(O)c4-c4cc3ccc4O)[C@H](O)c3ccc(c(Cl)c3)Oc3cc2cc(c3O[C@@H]2O[C@H](CO)[C@@H](O)[C@H](O)[C@H]2O[C@H]2C[C@](C)(N)[C@H](O)[C@H](C)O2)Oc2ccc(cc2Cl)[C@H]1O [Vancomycin]
MIC50 (Baumanii): > 128 µg/mL | MIC90 (Baumanii): > 128 µg/mL | MIC50 (E. coli): > 128 µg/mL | MIC90 (E. coli): > 128 µg/mL | MIC (E. coli; read-out: Scope of MIC): > 128 µg/mL | MIC50 [1]: 0.25 µg/mL (≈ 0.173 µM) | MIC90 [1]: 1 µg/mL (≈ 0.69 µM) | MIC ([1]; read-out: Scope of MIC): 0.004 to 2 µg/mL (≈ 0.00276 to 1.38 µM) | MIC50 [2]: 0.5 µg/mL (≈ 0.345 µM) | MIC90 [2]: 1 µg/mL (≈ 0.69 µM) | MIC ([2]; read-out: Scope of MIC): 0.03 to 1 µg/mL (≈ 0.0207 to 0.69 µM) | MIC50 [3]: 0.5 µg/mL (≈ 0.345 µM) | MIC90 [3]: 1 µg/mL (≈ 0.69 µM) | MIC ([3]; read-out: Scope of MIC): 0.25 to 2 µg/mL (≈ 0.173 to 1.38 µM) | MIC50 [4]: 0.5 µg/mL (≈ 0.345 µM) | MIC90 [4]: 0.5 µg/mL (≈ 0.345 µM) | MIC ([4]; read-out: Scope of MIC): 0.06 to 0.5 µg/mL (≈ 0.0414 to 0.345 µM) | MIC50 (Enterococcus): 1 µg/mL (≈ 0.69 µM) | MIC90 (Enterococcus): 2 µg/mL (≈ 1.38 µM) | MIC (Enterococcus; read-out: Scope of MIC): 0.5 to 50 µg/mL (≈ 0.345 to 34.5 µM) | MIC (Enterococcus ATCC 700802 [5]): > 16 µg/mL | MIC (E. coli 02-1-65 [6]): 128 µg/mL (≈ 88.3 µM) | MIC [7]: 0.5 µg/mL (≈ 0.345 µM) | MIC [8]: 0.5 µg/mL (≈ 0.345 µM) | ED50 (E. coli 02-1-65 [9]): > 40.1 mg/kg | ED50 (Enterococcus ATCC 700802 [10]): 3.66 mg/kg | ED50 [11]: 2.42 mg/kg | ED50 [12]: 3.54 mg/kg

B1: allosteric peptide of colicin Ia: wild-type Colicin Ia with mutations G11A, H22R, A26G, V31L and H40K; SEQ ID NO: 36 (protein)
chain: SDPVRITNPAAESLGYDSDGREIMGVDIYLNPPRVDVFKGTPPAWSSFGNKTIWGGNEWVDDSPTRSDIEKRDKEITAYKNTLSAQQKENENKRTEAGKRLSAAIAAREKDENTLKTLRAGNADAADITRQEFRLLQAELREYGFRTEIAGYDALRLHTESRMLFADADSLRISPREARSLIEQAEKRQKDAQNADKKAADMLAEYERRKGILDTRLSELEKNGGAALAVLDAQQARLLGQQTRNDRAISEARNKLSSVTESLNTARNALTRAEQQLTQQKNTPDGKTIVSPEKFPGRSSTNHSIVVSGDPRFAGTIKITTSAVIDNRANLNYLLSHSGLDYKRNILNDRNPVVTEDVEGDKKIYNAEVAEWDKLRQRLLDARNKITSAESAVNSARNNLSARTNEQKHANDALNALLKEKENIRNQLSGINQKIAEEKRKQDELKATKDAINFTTEFLKSVSEKYGAKAEQLAREMAGQAKGKKIRNVEEALKTYEKYRADINKKINAKDRAAIAAALESVKLSDISSNLNRFSRGLGYAGKFTSLADWITEFGKAVRTENWRPLFVKTETIIAGNAATALVALVFSILTGSALGIIGYGLLMAVTGALIDESLVEKANKFWGI
modifications: allosteric peptide of colicin Ia
possibility of causing host allergic reaction relative to anti-Staphylococcus aureus polypeptide [13]: lower one to two order of magnitude

B2: PMC-SE: Staphylococcus epidermidis pheromone linked to C-terminus of allosteric colicin Ia′; SEQ ID NO. 21; plasmid pBHC-SE (protein)
chain: SDPVRITNPAAESLGYDSDGREIMGVDIYLNPPRVDVFKGTPPAWSSFGNKTIWGGNEWVDDSPTRSDIEKRDKEITAYKNTLSAQQKENENKRTEAGKRLSAAIAAREKDENTLKTLRAGNADAADITRQEFRLLQAELREYGFRTEIAGYDALRLHTESRMLFADADSLRISPREARSLIEQAEKRQKDAQNADKKAADMLAEYERRKGILDTRLSELEKNGGAALAVLDAQQARLLGQQTRNDRAISEARNKLSSVTESLNTARNALTRAEQQLTQQKNTPDGKTIVSPEKFPGRSSTNHSIVVSGDPRFAGTIKITTSAVIDNRANLNYLLSHSGLDYKRNILNDRNPVVTEDVEGDKKIYNAEVAEWDKLRQRLLDARNKITSAESAVNSARNNLSARTNEQKHANDALNALLKEKENIRNQLSGINQKIAEEKRKQDELKATKDAINFTTEFLKSVSEKYGAKAEQLAREMAGQAKGKKIRNVEEALKTYEKYRADINKKINAKDRAAIAAALESVKLSDISSNLNRFSRGLGYAGKFTSLADWITEFGKAVRTENWRPLFVKTETIIAGNAATALVALVFSILTGSALGIIGYGLLMAVTGALIDESLVEKANKFWGIDSVCASYF
modifications: The peptide of PMC-SE
notes: Staphylococcus epidermidis pheromone linked to C-terminus of allosteric colicin Ia′; 21; plasmid pBHC-SE
growth of Staphylococcus epidermidis (bacteria growth curve) [14]: effectively restrained; also recorded: completely restrained | bacteriostasis effect on growth of methicillin-resistant Staphylococcus aureus (bacteria growth curve) [15]: less better
